Assay results reported in US5399371A, “Low calorie substitute for an edible oil” (Henkel Corporation, priority 1993, dated 1995).

Experiments:
[1] = test system: porcine pancreatic lipase; test: Lipase assay: resistance to hydrolysis by porcine pancreatic lipase; assay type: in vitro ADME; settings: pig, pH 8
Experimental: The polyglycerols in Examples III, IV, V, VI, VII, X, XI were subjected to digestion by porcine pancreatic lipase to test for resistance to hydrolysis. This test is an indicator of resistance to digestion within a mammalian digestive system.
Lipase Assay--The following materials and procedure were employed:
0.05M Tris-HCl buffered at pH=8.0 at 37° C.
60 mg porcine pancreatic lipase (Sigma Cat. No. L3126) to 5.0 ml of the above L-histidine solution.
Olive oil is used as a standard in these assays. The olive oil is from Sigma, cataloque number 01500.
1. Weigh 0.2000 grams of standard or sample into each of three 125 ml Erlenmeyer flasks.
2. To each flask add 8.0 ml of Salts solution, and 1.0 ml of the 0.05M Tris-HCl solution. Stopper each flask and place them in a shaker water bath equilibrated to 37° C. Commence agitation at 250 rpm. A New Brunswick shaker water bath was used throughout this study.
3. After the samples have equilibrated to temperature, 15-20 minutes, add 1.0 ml of enzyme to each of two flasks and 1.0 ml of histidine solution to the third flask as a blank. Stagger the addition to each flask by at least 30 seconds. The third flask in each set is the sample blank, which accounts for any free acids in the sample. Reactions should run both for 1 hour and 18 hours.
4. When reaction time has expired, add 50 ml of isopropanol to each flask. Prior to titration with 0.05-0.10N KOH in methanol, add a few drops of 1% phenolphthalein in ethanol to each flask. The exact concentration of .the potassium hydroxide solution should be standardized using KHP, potassium hydrogen phthalate. Titrate each flask to the pink endpoint and record the amount of base required to neutralize the sample. If solubility is a problem, warm sample slightly in a water bath prior to titration.
5. For olive oil, the % hydrolysis for each sample will be the mmoles KOH divided by the mmoles fatty acids available×(times) 100. An average molecular weight for olive oil of 880 g/mole can be used The corrected % hydrolysis is the % hydrolysis for the lipase-treated sample minus the % hydrolysis for the blank. For more heterogeneous samples (complex esters), the % hydrolysis can be calculated as the (AV/SAP Value)×100. The AV for each sample is (mmole KOH sample--mmole KOH blank) (56 mg KOH/mmole)/sample weight in grams. The saponification value can be determined using a method such as A.O.C.S. Official Method Cd 3-25. It is defined as the mg KOH required to saponify a gram of sample. The % hydrolysis can then be determined by taking a ratio of the measured AV after lipase treatment/SAP VALUE 100.

[2] = rat, in vivo
[3] = in vivo; cited from earlier work

Substance: Polyglycerol polyoleate [Example VII]
- Percent Hydrolysis 1 hr. [1]: 4.2%
- Percent Hydrolysis 18 hrs. [1]: 7.8%
- % Digested in Rats [2]: 70%

Substance: Polyglycerol polyoleate [Example XI]
- Percent Hydrolysis 1 hr. [1]: 0.5%
- Percent Hydrolysis 18 hrs. [1]: 5.3%
- % Digested in Rats [2]: 50%

Substance: Propoxylated polyglycerol polyoleate [Example IV]
- Percent Hydrolysis 1 hr. [1]: 2.7%
- Percent Hydrolysis 18 hrs. [1]: 2.3%
- % Digested in Rats [2]: 26%

Substance: Propoxylated polyglycerol polytallowate [Example V]
- Percent Hydrolysis 1 hr. [1]: 2.4%
- Percent Hydrolysis 18 hrs. [1]: 3.8%
- % Digested in Rats [2]: 18%

Substance: decaglycerol dodecaoleate
- absorption / hydrolysis and metabolism in rat feeding studies [3]: substantially absorbed

Substance: polyglycerol polyoleate [Example III]
- Percent Hydrolysis 1 hr. [1]: 2.7%
- Percent Hydrolysis 18 hrs. [1]: 4.4%
- % Digested in Rats [2]: 52%
